Where two headings read alike, the source gives them in different places. Blank lines part the entries; values can stand above or below the compound they belong to.
Assays:
[1] = tested on: 3D7 strain of P. falciparum; test: Host cell-mediated drug degradation: antiplasmodial activity of uRBC supernatants; assay type: cell-based, Plasmodium falciparum; details: for IC50: Plasmodium falciparum, 3D7, 0.16 h, 500 nM drug, 3D7, SYBR Green I, median ± SEM (AQ mean, 95% CI), read-out: IC50 of supernatants harvested at 0.16 h; for Fold changes (24 h/0.16 h): 3D7, ratio of IC50 at 24 h to IC50 at 0.16 h
Description: Each well of 96-well plates was filled with 125 µL drug (1000 nM) and 125 µL uninfected red blood cells (uRBC), which were mixed to obtain a final drug concentration of 500 nM and 2.5% or 1.0% hematocrit. The plates were incubated at 37°C in the standard gas mixture. After each time point (10 min, 6 h, and 24 h), supernatants were carefully harvested and stored at −80°C until use. […] Next, supernatants were diluted in a complete medium in six different dilutions and were aliquoted in new plates. The antimalarial activity of these supernatants and freshly dissolved drugs was determined in an asynchronous parasite culture of P. falciparum (3D7, D10, and W2 strains) for 72 h using the same method described above, and parasite viability was assessed by the pLDH ([38]) and SYBR Green I ([41]) methods. Only the experiments where the IC50 values of the supernatants harvested at 10 min were the same as those of the respective fresh drugs were considered for determining equivalent drug concentration. […] Decay in drug concentration was estimated by using the normalized slope values calculated from linear regression fits using the slope values of a standard curve as reference. Three independent experiments were performed using two replicates.
Figure S5: Data associated to Figure 3 in the main text of the manuscript. Panel A: Representative response-concentration curves of the antiplasmodial activity of supernatant-derived uRBC (2.5% hematocrit) harvested at indicated times (0.16, 6, and 24 h). Drug activity on parasite viability was determined 72 h after parasite incubation (3D7 strain, asynchronous). Values were subtracted from control (without treatment), transformed, and normalized to calculate nonlinear fit. Parasite viability was determined by SYBR Green I. Values are mean and error bars are the standard deviation of a single experiment, each concentration in duplicate. […] Footnotes: ^[a] Parasite viability was determined by SYBR Green I. ^[b^] Parasite viability was determined by pLDH readout. Values are median ± SEM of three independent experiments, each concentration in duplicate. ^[c^] […] These values are expressed as mean and 95% confidence interval (CI) of one experiment, each concentration in duplicate. […] Unpaired two-tailed t-test at 95% CI: *p <0.05; **p <0.01.

[2] = tested on: quiescent ART-resistant parasites (F32-ART); test: Quiescent-stage survival assay (QSA); assay type: cell-based, Plasmodium falciparum; details: threshold of activity 6 days
Description: The QSA was performed as previously described to determine the drug activity on quiescent ART-resistant parasites ([11]). F32-ART culture parasites were synchronized at the ring stage and adjusted to 3% parasitemia and 2% hematocrit. […] At the end of treatment, parasites from each of the three conditions were washed with RPMI-1640 medium and replaced in new wells in a drug-free culture medium with 10% human serum. Parasitemia was determined daily by thin blood smears until the cultures reached their initial parasitemia (3%), which was defined as the recrudescence day ([11]). The recrudescence capacity of parasites exposed in conditions A and B was compared to determine whether the drug was active on quiescent parasites. Condition C was designed to check that the concentration at which the drug was tested acted on proliferating parasites. If no parasite recrudescence was observed, the experiment was stopped.

[3] = tested on: Asynchronous NF54 strain of P. falciparum; test: Speed of drug activity (pLDH); assay type: cell-based, Plasmodium falciparum; details: for IC50: Plasmodium falciparum, NF54, asynchronous, mean (95% CI)
Description: Each well of 96-well plates was filled with 100 µL drug and 100 µL culture containing asynchronous P. falciparum (NF54 strain) parasites, which were mixed to obtain a final parasitemia of 1.0% to 1.5% and 1.0% hematocrit. The plates were incubated for 24, 48, and 72 h at 37°C with a standard gas mixture. […] Parasite viability was measured using the pLDH method, and IC50 values were calculated as described above. Three independent experiments were performed using two technical replicates.
Figure S3: Speed of antiparasitic activity of hybrids (1) and (2) against CQ-sensitive NF54 strain of P. falciparum. Panel A: Representative response-concentration curves. Panel B: A table summarizing the results. Footnotes for table: ^[a] Parasite viability was accessed at each indicated time (24, 48, or 72 h) after addition of drugs. Values are the mean and 95% confidence interval of one experiment using each concentration of compounds in duplicate. Parasite viability was determined by parasite lactate dehydrogenase (pLDH) assay. DHA = dihydroartemisinin; ATO = atovaquone.

[4] = In vitro metabolic stability assay in microsomes; assay type: in vitro ADME; details: for half-life at 1 µM: read-out: Degradation half-life; for microsomal CLint at 1 µM: 0.4 mg/mL
Description: In vitro microsomal stability assay was performed in duplicate in a 96-well microtiter plate, using a single-point experiment design ([42]). Test compounds (1 µM) were incubated individually in human (pool of 50, mixed gender), rat (pool of 711, male Sprague Dawley), and mouse (pool of 1,634, male CD1) liver microsomes (Xenotech, Kansas, USA) to a final protein concentration of 0.4 mg/mL, suspended in 0.1 M phosphate buffer (pH 7.4). Incubations were started by the addition of NADPH (1 mM) as a cofactor and shaken for 30 min at 37°C. The reactions were quenched by the addition of 300 µL of ice-cold acetonitrile containing an internal standard (carbamazepine, 0.0236 µg/mL) and centrifuged. The supernatant was transferred to a fresh 96-well plate and analyzed by liquid chromatography-tandem mass spectrometry (LC-MS/MS) (Agilent Rapid Resolution HPLC, AB SCIEX 4500 MS). The relative loss of the parent compound over time was monitored, and plots (concentration vs time) were prepared per compound to determine the first-order rate constant for compound depletion. This was in turn used to calculate half-life, in vitro intrinsic clearance (Clint), and in vivo hepatic extraction ratio ([43]).

Compound: CCN(CC)Cc1cc(Nc2ccnc3cc(Cl)ccc23)ccc1O [AQ, amodiaquine, reference compound]
IC50 ([1]; uRBC 1.0% hematocrit): 3.9 nM | IC50 ([1]; uRBC 2.5% hematocrit): 3.6 nM | Fold changes (24 h/0.16 h) ([1]; uRBC 1.0% hematocrit): 0.76 | Fold changes (24 h/0.16 h) ([1]; uRBC 2.5% hematocrit): 0.91

Compound: O=C1C(O)=C([C@H]2CC[C@H](c3ccc(Cl)cc3)CC2)C(=O)c2ccccc21 [ATO, atovaquone, reference compound]
delay of recrudescence in the QSA versus DHA alone [2]: up to 10 days | IC50 ([3]; viability at 24 h, read-out: IC50, 24 h): > 600 nM | IC50 ([3]; viability at 48 h, read-out: IC50, 48 h): 5.3 nM | IC50 ([3]; viability at 72 h, read-out: IC50, 72 h): 0.78 nM | Conclusion (speed of antiparasitic activity) ([3]; from IC50 at 24, 48, 72 h): Slow-acting

half-life at 1 µM ([4]; both sexes, pH 7.4, human liver microsomes): 7 min | microsomal CLint at 1 µM ([4]; both sexes, human liver microsomes, pH 7.4): 250 µL/min/mg | Drug remaining after 30 min ([4]; human liver microsomes): 5% | half-life at 1 µM ([4]; male, CD1, pH 7.4, mouse liver microsomes): 4 min | microsomal CLint at 1 µM ([4]; male, CD1, mouse liver microsomes, pH 7.4): 429 µL/min/mg | half-life at 1 µM ([4]; male, Sprague Dawley, pH 7.4, rat liver microsomes): 4 min | microsomal CLint at 1 µM ([4]; male, Sprague Dawley, rat liver microsomes, pH 7.4): 442 µL/min/mg | Drug remaining after 30 min ([4]; mouse liver microsomes): 0.6% | Drug remaining after 30 min ([4]; rat liver microsomes): 0.5%
Compound: C[C@H]1[C@H](OC(=O)CCC(=O)O)O[C@@H]2O[C@@]3(C)CC[C@H]4[C@H](C)CC[C@@H]1[C@@]24OO3 [Artesunate, artesunate, reference compound]
